Results from patent US7294637B2 (Sepracor, Inc., priority 2000, dated 2007).
Where two headings read alike, the source gives them in different places.

Experiments:
[1] = target: T1, norepinephrine transporter (Homo sapiens, UniProt P23975); experiment: Functional activity, norephinephrine uptake inhibition in MDCK cell lines; type: cell-based
DAT [2] = target: T2, DAT (Homo sapiens, UniProt Q01959); experiment: cell-based; parameters: expressed in transfected cells; settings: hDAT cell line; read-out: DA Uptake, Functional Assays (antagonism, EC50)
T2 sequence (Q01959 whole entry): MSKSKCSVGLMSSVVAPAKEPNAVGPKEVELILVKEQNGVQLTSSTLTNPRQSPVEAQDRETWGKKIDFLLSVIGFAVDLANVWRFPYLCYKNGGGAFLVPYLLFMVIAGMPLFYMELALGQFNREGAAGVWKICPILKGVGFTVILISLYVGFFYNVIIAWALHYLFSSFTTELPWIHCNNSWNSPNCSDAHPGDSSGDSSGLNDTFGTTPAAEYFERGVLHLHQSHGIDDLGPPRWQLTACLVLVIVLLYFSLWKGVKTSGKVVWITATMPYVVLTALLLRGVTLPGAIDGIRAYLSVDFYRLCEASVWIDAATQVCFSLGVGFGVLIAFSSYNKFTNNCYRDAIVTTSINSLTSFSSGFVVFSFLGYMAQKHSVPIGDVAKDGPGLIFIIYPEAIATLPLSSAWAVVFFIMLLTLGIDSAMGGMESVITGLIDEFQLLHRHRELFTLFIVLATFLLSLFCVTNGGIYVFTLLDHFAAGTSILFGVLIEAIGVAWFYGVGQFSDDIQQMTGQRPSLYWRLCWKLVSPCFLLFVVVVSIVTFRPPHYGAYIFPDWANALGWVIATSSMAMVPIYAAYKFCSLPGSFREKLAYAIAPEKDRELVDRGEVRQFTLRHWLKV

[3] = target: T1, norepinephrine transporter; experiment: NE uptake: displacement of norephinephrine ligands in vitro (methods of Galli et al.); type: binding
rat = experiment: Acute toxicity assessment, maximum tolerated dose i.v., rat; type: in vivo; settings: rats, 30 mg/kg i.v.
Experimental: (§1) An in vivo evaluation was carried out to determine the maximum tolerated dose of numerous test compounds in two animal species (mouse and rat). The compounds were administered i.v. and the animals were then observed for 72 h. Compounds 114, 115, 113, 110, 124, 125, 129, and 130 were solubilized in 5% dextrose (w/v)/polyethylene glycol 400 (4:1 v/v). Compounds 126, 127, 131, and 132 were solubilized in 10% hydroxypropyl-β-cyclodextrin (w/v).

dopamine transporter = dopamine transporter (Homo sapiens, UniProt Q01959); experiment: DA uptake: displacement of dopamine ligands in vitro (methods of Gu et al.); settings: DA Uptake, Uptake Profile (IC50, nM), displacement of dopamine ligands in vitro
Sequence of dopamine transporter (Q01959 whole entry): as above

mouse = experiment: Acute toxicity assessment, maximum tolerated dose i.v., mouse; type: in vivo; settings: mice, 30 mg/kg i.v.
Experimental: as §1

serotonin transporter [4] = target: T3, serotonin transporter (Homo sapiens, UniProt P31645); experiment: Functional activity, serotonin uptake inhibition in human HEK-293 cell lines; type: cell-based; parameters: expressed in transfected cells; host or cells: HEK-293; settings: 5-HT Uptake, Functional Assays (antagonism, EC50, nM)
T3 sequence (P31645 whole entry): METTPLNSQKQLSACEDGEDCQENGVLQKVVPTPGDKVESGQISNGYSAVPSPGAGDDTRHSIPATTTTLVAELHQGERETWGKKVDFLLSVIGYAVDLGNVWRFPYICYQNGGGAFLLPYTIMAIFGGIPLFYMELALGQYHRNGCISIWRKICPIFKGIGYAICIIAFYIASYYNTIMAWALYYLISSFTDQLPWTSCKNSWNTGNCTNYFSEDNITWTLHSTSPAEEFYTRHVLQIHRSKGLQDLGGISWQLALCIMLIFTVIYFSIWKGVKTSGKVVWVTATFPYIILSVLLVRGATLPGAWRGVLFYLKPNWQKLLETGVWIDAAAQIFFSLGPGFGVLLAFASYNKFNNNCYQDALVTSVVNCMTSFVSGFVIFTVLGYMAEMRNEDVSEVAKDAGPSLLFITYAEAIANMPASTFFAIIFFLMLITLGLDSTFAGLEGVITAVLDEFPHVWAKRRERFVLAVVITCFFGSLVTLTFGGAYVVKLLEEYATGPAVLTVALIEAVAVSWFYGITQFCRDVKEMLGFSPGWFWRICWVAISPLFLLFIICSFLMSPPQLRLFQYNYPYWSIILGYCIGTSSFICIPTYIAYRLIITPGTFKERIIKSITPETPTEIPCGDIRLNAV

Sprague-Dawley rats [5] = experiment: Spontaneous locomotor activity in rats (Example 123); type: in vivo, rat; settings: 20 mg/kg i.p., 60 minutes after administration
Experimental: Male Sprague-Dawley rats, (Iffa Credo, Saint-Germain/L'Arbresle, France), weighing 200-250 g at the beginning of the study, were used.
During acclimatization period, rats were housed, 2 or 3 per cage, in Makrolon type III cages, in the animal room (temperature: 20±2° C., humidity: minimum 45%, air changes:>12 per hour, light/dark cycle of 12 h/12 h [on at 7:00 A.M.]). Animals were allowed a minimum of 5 days period before experiment for acclimatization.
Rats received food (TrouwNutrition, Vigny, France) and water (tap water in water bottle) ad libitum. Rats were placed on a sawdust bedding in their cages (Goldchips, Trouw Nutrition, Vigny, France). On the day before experiments, food was withdrawn to have animals fasted overnight.
On the day of experiment, test item(s) were solubilized in 5% dextrose (w/v)/polyethylene glycol (PEG) 400 (4:1 v/v).
All test compounds were administered at 20 mg/kg as a single i.p. dose.
Twenty, 60 and 120 minutes after administration, rats were placed in a plastic box 30×30 cm in a room with low light intensity (maximum 50 lux). Locomotor activity was determined during 20 min periods using a video image analyzer (Videotrack, View Point, France). Number of occurences, distance and duration of fast and slow movements, number of occurences and duration of periods of inactivity and number of rears were measured.

serotonin transporter [6] = target: T3, serotonin transporter; experiment: 5-HT uptake: displacement of serotonin ligands in vitro (methods of Gu et al.); type: binding
Sprague-Dawley rats [7] = experiment: Spontaneous locomotor activity in rats, 1-24 hours (Example 223); type: in vivo, rat; settings: 10 mg/kg i.p.
Experimental: The effect of 124 and 126 on spontaneous locomotor activity in rats was determined according to the procedures outlined by Silverman et al. (Motor Activity. In “Animal behavior in the laboratory”, Chapman and Hall eds, London, p. 79-92, 1978) and Boissier et al. (Arch. Int. Pharmacodyn. 1965, 158, 212. ) Test items and test item vehicles were administered to male Sprague-Dawley rats (n=10) as a single i.p. dose. One, three, five, eight and twenty four hours following administration, rats were placed in a plastic box 30×30 cm in a room with low light intensity (maximum 50 lux). Locomotor activity was determined during 20 minute periods using video image analyzers. Images recorded with video cameras were digitalized and displacements of the center of gravity of the digital image spot were tracked and analyzed. When the speed of displacement of the center of gravity of the spot was below 4.26 cm/sec, the movement was considered as inactivity. When this speed was between 4.26 and 6.75 cm/sec, the movement was considered as a small movement. When this speed was above 6.75 cm/sec, the movement was considered as a large movement. The number of occurrences, distance and duration of fast and slow movements, number of occurrences and duration of periods of inactivity and number of rears were measured.

DAT [8] = target: T2, DAT; settings: dosed orally, 60 mg; cited from earlier work
[9] = baboon, cited from earlier work
Sprague-Dawley rats [10] = experiment: Spontaneous locomotor activity in rats (Example 141); type: in vivo, rat; settings: 10 mg/kg i.p.
Experimental: The effect of 124 and 126 on spontaneous locomotor activity in rats was determined according to the procedures outlined by Silverman et al. (Motor Activity. In “Animal behavior in the laboratory”, Chapman and Hall eds, London, p. 79-92, 1978) and Boissier et al. (Arch. Int. Pharmacodyn. 1965, 158, 212. )
Test items and test item vehicles were administered to male Sprague-Dawley rats (n=10) as a single i.p. dose (vehicle A=10% hydroxypropyl-β-cyclodextrin in water; vehicle B=4:1 5% aqueous dextrose:PEG 400). […] Locomotor activity was determined during 20 minute periods using video image analyzers. Images recorded with video cameras were digitalized and displacements of the center of gravity of the digital image spot were tracked and analyzed. When the speed of displacement of the center of gravity of the spot was below 4.26 cm/sec, the movement was considered as inactivity. When this speed was between 4.26 and 6.75 cm/sec, the movement was considered as a small movement. When this speed was above 6.75 cm/sec, the movement was considered as a large movement. The number of occurrences, distance and duration of fast and slow movements, number of occurrences and duration of periods of inactivity and number of rears were measured.

[11] = cited from earlier work
[12] = NE Uptake, Uptake Profile (IC50, nM)
[13] = displacement of serotonin ligands in vitro, read-out: 5-HT Uptake, Uptake Profile (IC50)

T1 sequence (P23975 whole entry): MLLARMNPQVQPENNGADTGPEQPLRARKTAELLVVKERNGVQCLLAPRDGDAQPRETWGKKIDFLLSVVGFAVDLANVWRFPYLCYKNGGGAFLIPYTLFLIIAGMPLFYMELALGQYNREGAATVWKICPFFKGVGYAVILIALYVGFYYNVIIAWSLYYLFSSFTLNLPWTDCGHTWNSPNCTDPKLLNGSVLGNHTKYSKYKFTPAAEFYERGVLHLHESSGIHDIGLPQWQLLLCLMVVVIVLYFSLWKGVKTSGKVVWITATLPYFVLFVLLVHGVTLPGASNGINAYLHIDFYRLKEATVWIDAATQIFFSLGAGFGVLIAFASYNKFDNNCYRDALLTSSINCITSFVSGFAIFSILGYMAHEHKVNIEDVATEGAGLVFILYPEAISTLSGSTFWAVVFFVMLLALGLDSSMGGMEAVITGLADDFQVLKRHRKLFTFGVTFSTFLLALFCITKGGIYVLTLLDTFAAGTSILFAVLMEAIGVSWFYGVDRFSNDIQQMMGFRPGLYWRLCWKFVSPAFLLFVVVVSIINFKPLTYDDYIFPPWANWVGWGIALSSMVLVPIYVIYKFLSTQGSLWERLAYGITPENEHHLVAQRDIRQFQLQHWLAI

Clc1ccc(C2(CN3CCC[C@@H](COc4ccc5c(c4)OCO5)C3)CCC2)cc1 [compound 110, (R)-3-(Benzo[1,3]dioxol-5-yloxymethyl)-1-[1-(4-chloro-phenyl)-cyclobutylmethyl]-piperidine]
EC50 [1]: < 1000 nM | EC50 (DAT [2]): < 10 nM | IC50 [3, 12]: < 1000 nM | tolerability and mortality after 72 h (rat): well tolerated | IC50 (dopamine transporter): < 100 nM | tolerability and mortality after 72 h (mouse): well tolerated | EC50 (serotonin transporter [4]): > 1000 nM | locomotor activity compared to control animals (Sprague-Dawley rats [5]): significant increase | IC50 (serotonin transporter [6]; [13]): < 1000 nM

Clc1ccc(C2(CN3CCC[C@H](COc4ccc5c(c4)OCO5)C3)CCC2)cc1 [compound 113, (S)-3-(Benzo[1,3]dioxol-5-yloxymethyl)-1-[1-(4-chloro-phenyl)-cyclobutylmethyl]-piperidine]
EC50 [1]: < 1000 nM | EC50 (DAT [2]): < 10 nM | IC50 [3, 12]: < 1000 nM | tolerability and mortality after 72 h (rat): well tolerated | IC50 (dopamine transporter): < 100 nM | tolerability and mortality after 72 h (mouse): well tolerated | EC50 (serotonin transporter [4]): > 1000 nM | locomotor activity compared to control animals (Sprague-Dawley rats [5]): significant increase | IC50 (serotonin transporter [6]; [13]): < 1000 nM

FC(F)(F)c1ccc(OC[C@@H]2CCCN(CC3(c4ccc(Cl)cc4)CCC3)C2)cc1 [compound 114, (R)-1-[1-(4-chloro-phenyl)-cyclobutylmethyl]-3-(4-trifluoromethyl-phenoxymethyl)-piperidine]
EC50 [1]: < 1000 nM | EC50 (DAT [2]): < 10 nM | IC50 ([3]; read-out: NE Uptake, Uptake Profile (IC50)): < 1000 nM | tolerability and mortality after 72 h (rat): well tolerated | IC50 (dopamine transporter): < 100 nM | tolerability and mortality after 72 h (mouse): well tolerated | EC50 (serotonin transporter [4]): > 1000 nM | locomotor activity compared to control animals (Sprague-Dawley rats [5]): significant increase | IC50 (serotonin transporter [6]; read-out: 5-HT Uptake, Uptake Profile (IC50)): > 1000 nM

FC(F)(F)c1ccc(OC[C@H]2CCCN(CC3(c4ccc(Cl)cc4)CCC3)C2)cc1 [compound 115, (S)-1-[1-(4-chloro-phenyl)-cyclobutylmethyl]-3-(4-trifluoromethyl-phenoxymethyl)-piperidine]
EC50 [1]: < 1000 nM | EC50 (DAT [2]): < 10 nM | IC50 [3, 12]: < 1000 nM | tolerability and mortality after 72 h (rat): well tolerated | IC50 (dopamine transporter): < 100 nM | tolerability and mortality after 72 h (mouse): well tolerated | EC50 (serotonin transporter [4]): > 1000 nM | locomotor activity compared to control animals (Sprague-Dawley rats [5]): significant increase | IC50 (serotonin transporter [6]; 5-HT Uptake, Uptake Profile (IC50, nM)): > 1000 nM

COC(=O)C(c1ccccc1)C1CCCCN1 (stereo not shown) [methylphenidate, reference compound]
Large Movement Occurrences (Sprague-Dawley rats [7]; 1 hour): 958 ± 118 ^ | Small Movement Occurrences (Sprague-Dawley rats [7]; 1 hour): 1595 ± 83 ^ | Large Movement Occurrences (Sprague-Dawley rats [7]; 3 hours): 504 ± 114 ^ | Small Movement Occurrences (Sprague-Dawley rats [7]; 3 hours): 1072 ± 122^ | Large Movement Occurrences (Sprague-Dawley rats [7]; 5 hours): 196 ± 62^ | Small Movement Occurrences (Sprague-Dawley rats [7]; 5 hours): 612 ± 108 ^ | Large Movement Occurrences (Sprague-Dawley rats [7]; 8 hours): 71 ± 20 ^ | Small Movement Occurrences (Sprague-Dawley rats [7]; 8 hours): 358 ± 65^ | Large Movement Occurrences (Sprague-Dawley rats [7]; 24 hours): 335 ± 68^ | Small Movement Occurrences (Sprague-Dawley rats [7]; 24 hours): 790 ± 81^ | DAT occupancy (DAT [8]): 70-72% | “high” in subjects (DAT [8]): no “high” was observed | time to peak concentration in brain ([9]; intravenous): 8 to 10 min | time to peak concentration in brain ([9]; orally dosed): 60 min | Large Movement Occurrences (Sprague-Dawley rats [10]; 20 min): 974.3 ± 125.5 ^ | Small Movement Occurrences (Sprague-Dawley rats [10]; 20 min): 1537.0 ± 97.3 ^ | Large Movement Occurrences (Sprague-Dawley rats [10]; 60 min): 423.9 ± 75.9 | Small Movement Occurrences (Sprague-Dawley rats [10]; 60 min): 992.0 ± 126.7 ^ | Large Movement Occurrences (Sprague-Dawley rats [10]; 120 min): 191.8 ± 37.1 ^ | Small Movement Occurrences (Sprague-Dawley rats [10]; 120 min): 555.0 ± 87.0 | time of peak uptake into the brain ([11]; dosed intravenously): 8 to 10 min | half-life in the brain ([11]; intravenous): 1.5 h
